Source: patent US20210223252A1, “METHODS FOR PROTEOMIC PROFILING USING NON-NATURAL AMINO ACIDS” (California Institute of Technology, priority 2004, published 2021)

Experiments:
HEK293 cells [1] = experiment: Ubiquitin signal on Western blot of whole lysates (protein degradation); assay type: cell-based; conditions: treated two hours
Experimental: (§1) To show the specificity of this technique for the detection of newly synthesized proteins, HEK293 cells were incubated for 2 hrs with AHA in the presence or absence of a protein synthesis inhibitor (Anisomycin or Cycloheximide). After incubation, cells were lysed and subjected to [3+2]cycloaddition with the biotin-bearing alkyne-linker Biotin-PEO-Propargylamide, followed by Western blot analysis with an anti-Biotin-antibody. […] The potential for increased protein degradation was measured by examining the ubiquitin signal strength on a Western blot from whole lysates of HEK293 cells, which were treated with AHA, methionine or incubation buffer for two hours.

[2] = tested on: E. coli and mammalian cells; experiment: Protein degradation upon introduction of AHA; assay type: cell-based; conditions: studies in E. coli and experiments in mammalian cells
[3] = tested on: dissociated hippocampal neurons; experiment: AHA toxicity by whole neuron morphology (GFP reporter); assay type: cell-based, rat; conditions: 2 hrs incubation
Experimental: Dissociated hippocampal neuron cultures were prepared from newborn rat pups (PO) as outlined in (Banker and Goslin, 1990), Neurons were plated at a density of 15,000-45,000 cells/cm^2 onto poly-D-lysine coated cell culture dishes or onto poly-D-lysine and growth factor reduced matrigel (BD Biosciences) coated polycarbonate nets with a pore size of 3 (Transwell, Corning) for the preparation of isolated dendrites. The cultures were maintained and allowed to mature in growth medium (Neurobasal-A supplemented with B27 and GlutaMAX-1) for 14 to 21 days before use. The use of this growth medium suppressed glial proliferation, which was even more reduced by application of Ara-C (5 μM final concentration). To supplement glial neurotrophic factors, 25% conditioned growth media from glial and cortical cultures were added to the growth media. Isolated dendrites were obtained from Transwell cultures by removing the cell body layer with a sterile cell lifter after change to HBS. For immunolabeling after AHA-incorporation and cycloaddition with BiotinCyclooctyne, neurons are fixed at room temperature with 4% paraformaldehyde for 20 minutes. […] Images are recorded through standard emission filters at contrast settings for which the crossover between the two channels is negligible. […]

HEK293 cells [4] = experiment: Detection of newly synthesized proteins: AHA labelling, [3+2]cycloaddition with Biotin-PEO-Propargylamide, anti-Biotin Western blot; assay type: cell-based; conditions: HEK293 cells incubated 2 hrs with AHA in the presence of the protein synthesis inhibitor
Experimental: In embodiments using [3+2] Cycloaddition, the following exemplary protocol may be used. Briefly, AHA, Biotin-PEO-Propargylamide and the triazole ligand were prepared as described previously. The tandem featured alkyne tag was synthesized by GenScript Corporation. Biotin-Cyclooctyne is a generous gift from Carolyn Bertozzi. DIO-L-leucine was purchased from Sigma. In all culture experiments, growth medium was removed from HEK293 cells, whole neuronal cultures or isolated dendrites were replaced with HEPES-buffered solution (HBS) with 2.86 mM AHA, and 2.86 mM methionine for control experiments. After incubation at 37° C., 5% CO2, cells were washed with PBS-MC (1 mMMgCl2, 0.1 mM CaCl2 in PBS) to remove excess amounts of AHA and methionine. SNS and other biochemical fractions are incubated with 2.86 mM AHA or 2.86 mM methionine under agitation at 37° C. and washed in StimBuffer after incubation. […]
as §1, with “Cycloheximide).” for “Cycloheximide). After incubation, cells were lysed and subjected to [3+2]cycloaddition with the biotin-bearing alkyne-linker Biotin-PEO-Propargylamide, followed by Western blot analysis with an anti-Biotin-antibody.”

SMILES | ubiquitination compared to buffer or methionine controls (HEK293 cells [1]) | increased protein degradation [2] | gross morphology of neurons compared to methionine controls ([3]; 12 DIV neurons expressing GFP reporter) | toxicity to neurons ([3]; primary/dissociated hippocampal neuronal cultures, equimolar AHA or methionine control) | anti-Biotin Western blot signal of AHA-labelled newly synthesized proteins (HEK293 cells [4])
[N-]=[N+]=NCC[C@H](N)C(=O)O [AHA, azidohomoalanine] | No increased ubiquitination | no evidence of increased protein degradation | no change in the gross morphology | not toxic | 
COc1ccc(C[C@H]2NC[C@H](O)[C@H]2OC(C)=O)cc1 [Anisomycin] |  |  |  |  | No signal was detected
C[C@@H]1C[C@@H]([C@H](O)CC2CC(=O)NC(=O)C2)C(=O)[C@@H](C)C1 [Cycloheximide] |  |  |  |  | No signal was detected
